Experimental data published in patent publication US8524686B2, “Composition for prevention or treatment of eye diseases” (Benebiosis Co., Ltd., priority 2008, dated 2013).

Columns and labels:
[1] = target: T1, VEGFR-2 (Homo sapiens, UniProt P35968); assay: Western blotting of VEGF-stimulated VEGFR-2 phosphorylation in HREC; assay type: cell-based; details: endothelial cells (HREC), concentration-dependent, FIG. 4
T1 construct: host or cells: human retinal endothelial cells (HREC), passages 4 to 6
T1 sequence (P35968 20-1356): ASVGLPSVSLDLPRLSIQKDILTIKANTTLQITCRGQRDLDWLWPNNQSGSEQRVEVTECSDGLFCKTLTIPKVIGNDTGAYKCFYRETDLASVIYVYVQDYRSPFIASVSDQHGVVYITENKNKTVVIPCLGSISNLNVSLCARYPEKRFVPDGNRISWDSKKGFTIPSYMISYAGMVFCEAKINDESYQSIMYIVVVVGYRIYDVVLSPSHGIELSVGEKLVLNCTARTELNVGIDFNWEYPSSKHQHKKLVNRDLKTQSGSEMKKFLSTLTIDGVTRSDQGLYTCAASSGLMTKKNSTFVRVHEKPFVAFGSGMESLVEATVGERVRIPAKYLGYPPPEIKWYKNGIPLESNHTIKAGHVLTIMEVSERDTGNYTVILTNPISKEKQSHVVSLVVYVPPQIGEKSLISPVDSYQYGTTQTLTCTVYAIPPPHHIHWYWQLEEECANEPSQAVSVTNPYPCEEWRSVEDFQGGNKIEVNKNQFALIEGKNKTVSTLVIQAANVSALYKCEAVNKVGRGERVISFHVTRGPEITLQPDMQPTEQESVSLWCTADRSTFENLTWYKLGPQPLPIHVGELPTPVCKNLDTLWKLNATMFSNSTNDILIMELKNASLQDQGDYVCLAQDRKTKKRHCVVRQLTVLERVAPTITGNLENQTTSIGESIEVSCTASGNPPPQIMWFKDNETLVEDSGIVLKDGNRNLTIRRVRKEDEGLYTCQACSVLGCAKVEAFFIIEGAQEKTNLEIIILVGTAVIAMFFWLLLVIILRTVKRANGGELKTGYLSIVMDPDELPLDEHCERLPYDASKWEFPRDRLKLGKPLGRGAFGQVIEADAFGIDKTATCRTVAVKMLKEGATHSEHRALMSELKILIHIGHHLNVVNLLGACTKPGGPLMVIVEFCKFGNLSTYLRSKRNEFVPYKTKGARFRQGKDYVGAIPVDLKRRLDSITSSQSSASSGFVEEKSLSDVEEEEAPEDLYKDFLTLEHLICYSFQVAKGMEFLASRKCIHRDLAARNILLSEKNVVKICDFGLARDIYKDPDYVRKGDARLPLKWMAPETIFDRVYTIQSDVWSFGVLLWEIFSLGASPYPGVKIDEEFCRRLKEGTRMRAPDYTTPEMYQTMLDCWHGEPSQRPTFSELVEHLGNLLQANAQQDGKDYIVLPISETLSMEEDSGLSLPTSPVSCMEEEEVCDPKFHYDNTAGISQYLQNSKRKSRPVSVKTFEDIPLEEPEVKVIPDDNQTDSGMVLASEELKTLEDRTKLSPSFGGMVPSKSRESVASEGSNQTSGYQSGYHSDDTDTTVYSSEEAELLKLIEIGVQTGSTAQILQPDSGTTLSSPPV
Protocol: (§1) Human retinal endothelial cells (HREC) were acquired from Sciencell (USA). The cells were cultured in sterilized endothelial cell medium (ECM, Sciencell, USA), and kept in a humidified 5% CO2 incubator at 37° C. Passages 4 to 6 of the HREC were used for testing.
(§2) HREC were homogenized in a buffer containing 50 mM Tris-HCl (pH 8.0), 150 mM NaCl, 0.02% NaN3, 100 μg/mL PMSF, 1 μg/mL aprotinin and 1% Triton X-100. Protein concentration was measured using a Bio-Rad protein assay (Bio-Rad, USA). Thirty (30) μg of the total cell lysate sample was separated by SDS-PAGE based on size, and subjected to electrophoretic migration toward a nitrocellulose membrane using a Hoefer electrophoresis system (Amersham Biosciences, UK). For detection of target protein, the membrane was reacted with p-AKT, ERK, p-ERK, VEGFR-2 (flk-1, Q-20), VE-cadherin, FAK, paxillin, vincullin (SantaCruz Biotechnology, USA) and p-VEGFR-2 (Cell Signaling Tech., USA) antibodies. Detection was carried out using secondary horseradish peroxidase-bound anti-rabbit IgG antibody, anti-goat IgG antibody and anti-mouse IgG antibody (SantaCruz Biotechnology, USA), and using ECL chemiluminescence system (Amersham Biosciences, UK).
(§3) VEGF-mediated VEGFR-2 activation plays an important role in tumor angiogenesis via the activation of VEGFR-2 downstream signal pathways in endothelial cells (25). […]

[2] = tested on: TNF-α; assay: RT-PCR of TNF-α RNA transcripts in corneal epithelial cells of EDE mice; assay type: in vivo, murine
Protocol: (§4) 6 to 8 weeks old C57BL/6 mice (Central Lab Animal, Seoul, Korea) were used for mouse model for dry eye syndrome. All animals were treated according to the ARVO Statement for the Use of Animals in Ophthalmic and Vision Research. Experimental dry eye (EDE) was induced by subcutaneous injection of 0.5 mg/0.2 mL scopolamine hydrobromide (Sigma-Aldrich, St. Louis, Mo.) in alternating hindquarters administered four times a day (9 AM, […], 3 PM and 6 PM) and by exposure to air and ≦40% ambient humidity for 18 hours per day, as previously reported (23). Four experimental groups were evaluated: untreated group (UT), EDE group (control), EDE+sialyllactose (1 mg/kg) group and EDE+sialyllactose (5 mg/kg) group.
(§5) Corneal and conjunctival epithelial cells acquired from six eyes per each test group. Total RNA was isolated using Trizol reagent (JBI Co., Korea) and kept at −80° C. until use. cDNA was synthesized by reverse transcriptase with an oligo dT-adaptor primer from an RNA PCR kit (Bioneer, Korea) according to the manufacturer's recommended protocol. […] In RT-PCR assay, utilization of the same quantity of mRNA was confirmed by analyzing expression level of mGAPDH. […]
(§6) The level of RNA transcripts encoding MMP-9, IL-1β, TNF-α and the housekeeping gene GAPDH were evaluated by RT-PCR using the total RNA of the corneal epithelial cells obtained from each group (UT, EDE and EDE+sialyllactose). […]

[3] = tested on: paxillin; assay: Immunofluorescence microscopy of anti-paxillin stained focal adhesions in VEGF-stimulated HREC; assay type: cell-based, human; details: HREC stimulated with 50 ng/mL VEGF, FIG. 6 G
Protocol: as §1
(§7) HREC were inoculated onto 12 mm n-sterilized, gelatin-coated coverslip of 6-well tissue culture plate. In the presence or absence of sialyllactose, HREC were immobilized with 3.7% formalin with or without treatment with VEGF. Then, the cells were passed through […] Triton X-100 in PBS and washed three times with PBS. Non-specific sites were blocked with PBS-containing 1% bovine serum albumin, while gently shaking at ambient temperature for 30 minutes. After immersing the cells in a solution of FAK, paxillin, vincullin and VE-cadherin antibodies, the cells were incubated overnight at 4° C. After washing with PBS, the cells were further reacted with Alexa Flour 594-conjugate goat anti-mouse IgG (Molecular Probes, USA) and Alexa Flour 488-conjugate goat anti-rabbit IgG (Molecular Probes, USA) at ambient temperature for 1 hour. After washing with PBS, analysis was carried out by fluorescence microscopy. Primary antibodies previously bound to antigens or secondary antibodies were used as negative control. […]

[4] = tested on: MMP-9; assay: RT-PCR of MMP-9 RNA transcripts in corneal epithelial cells of EDE mice; assay type: in vivo, murine
Protocol: as §4, §5, §6

[5] = tested on: human retinal endothelial cells (HREC); assay: Tube formation assay on Matrigel, VEGF-stimulated HREC; assay type: cell-based; details: 24 hours, concentration-dependent, FIG. 5
Protocol: as §1
Sialyllactose's inhibition effect against HREC's capillary-like network induced by VEGF was investigated using Matrigel-coated 24-well culture plate. Matrigel (13.9 mg/mL) was melted overnight at 4° C. and mixed with ECM medium at a ratio of 1:1. After adding 70 μL of Matrigel (6.95 mg/mL) diluted with ECM to each well of the 24-well culture plate, polymerization was performed for 1 hour at 37° C. For evaluation of tube formation, HREC were detached from the tissue culture plate, washed, resuspended in ECM medium containing 1% FBS (1×10^4 cells/well), and added to the Matrigel-coated well in the presence or absence of VEGF along with sialyllactose at various concentrations. The plate was incubated in a 5% CO2 incubator for 24 hours at 37° C., and capillary-like tube formed in each well of the plate was photographed using a Nikon optical microscope.
The VEGF-mediated VEGFR-2 activation is closely associated with the angiogenic action of endothelial cells such as proliferation, migration, survival and tube formation (25). […]

[6] = tested on: AKT; assay: Western blotting of VEGF-induced AKT activation in HREC; assay type: cell-based, human; details: FIG. 4
Protocol: as §1, §2, §3

[7] = tested on: experimental dry eye (EDE) mice; assay: Measurement of tear production with cotton thread in mouse model of dry eye; assay type: in vivo, C57BL/6 mice; details: for Tear production (thread's wet length): n = 6, cotton thread 60 seconds
Protocol: as §4
Tear production was measured with cotton thread (Zone-quick; Oasis). The thread was held with jeweler forceps and applied to the ocular surface in the lateral canthus for 60 seconds. Wetting of the thread was measured in millimeters, using the scale on the cotton thread.
Tear production at the ocular surface in the lateral canthus from the UT, EDE and two treatment groups (6 eyes/group/experiment, in four different sets of experiments) was measured with cotton thread.

[8] = tested on: IL-1β; assay: RT-PCR of IL-1β RNA transcripts in corneal epithelial cells of EDE mice; assay type: in vivo, murine
Protocol: as §4, §5, §6

[9] = tested on: VE-cadherin; assay: Immunofluorescence microscopy of VEGF-induced intercellular adhesion (VE-cadherin staining) in HREC; assay type: cell-based, human; details: VEGF-stimulated HREC, one hour after VEGF stimulation, FIG. 7 C
Protocol: as §1, §7

[10] = tested on: murine MMP-9; assay: SDS-PAGE gelatin zymography of corneal and conjunctival epithelial cells of EDE mice; assay type: in vivo; details: FIG. 3
Protocol: as §4
In order to determine the relative concentration of gelatinases in corneal and conjunctival epithelial cells, SDS-PAGE gelatin zymography was performed by using a previously reported method (24). Tissue was homogenized in a sample buffer containing 50 mM Tris-HCl (pH 8.0), 150 mM NaCl, 0.02% NaN3, […] phenylmethylsulfonyl fluoride (PMSF) and 1% Triton X-100. […]
Gelatinolytic activity (105 kDa gelatinolytic band corresponds to murine MMP-9) was evaluated in corneal and conjunctival epithelial cells acquired from the UT, EDE and two treatment groups.

[11] = tested on: FAK; assay: Immunofluorescence microscopy of anti-FAK stained focal adhesions in VEGF-stimulated HREC; assay type: cell-based, human; details: HREC stimulated with 50 ng/mL VEGF, FIG. 6 C
Protocol: as §1, §7

[12] = corneal epithelial cells, EDE group treated with sialyllactose, FIG. 2

With `CC(=O)N[C@H]1[C@H]([C@H](O)[C@H](O)CO)O[C@@](O[C@H]2[C@@H](O)[C@@H](CO)O[C@@H](O[C@H]3[C@H](O)[C@@H](O)C(O)O[C@@H]3CO)[C@@H]2O)(C(=O)O)C[C@@H]1O` (stereo partly drawn) [sialyllactose, Neu5Ac α-2,3-D-Gal β-1,4-D-Glc] the “VEGF-stimulated VEGFR-2 phosphorylation” value [1] was “strongly reduced”, the “Decrease in expression of TNF-α gene, 5 mg/kg compared with 1 mg/kg group” value ([2]; EDE + sialyllactose 5 mg/kg) was “larger decrease” and the “Level of TNF-α transcripts” value [2, 12] was “decreased”. For the same molecule, the “Recruitment and increase of anti-paxillin immunostaining of focal adhesions” value [3] was “certainly blocked”, the “Decrease in expression of MMP-9 gene, 5 mg/kg compared with 1 mg/kg group” value ([4]; EDE + sialyllactose 5 mg/kg) was “larger decrease” and the “Level of MMP-9 transcripts” value [4, 12] was “decreased”. For the same molecule, the “Width and length of the tube” value [5] was “significantly reduced”, the “VEGF-induced AKT activation” value [6] was “markedly reduced” and the “Tear production versus EDE group” value ([7]; EDE + sialyllactose test groups (1 and 5 mg/kg)) was “statistically significant increased tear production”. The “Tear production (thread's wet length)” value ([7]; EDE mice + sialyllactose 1 mg/kg) was 1.55 ± 0.48 mm, the “Tear production (thread's wet length)” value ([7]; EDE mice + sialyllactose 5 mg/kg) was 1.45 ± 0.34 mm and the “Decrease in expression of IL-1β gene, 5 mg/kg compared with 1 mg/kg group” value ([8]; EDE + sialyllactose 5 mg/kg) was “larger decrease”. The “Level of IL-1β transcripts” value [8, 12] was “decreased”, the “Sharp and continuous intercellular contact areas (VE-cadherin staining)” value [9] was “recovered” and the “Gelatinolytic activity (105 kDa band, MMP-9)” value ([10]; EDE + sialyllactose 1 mg/kg) was “decreased gelatinolytic activity”. For the same molecule, the “Gelatinolytic activity (105 kDa band, MMP-9)” value ([10]; EDE + sialyllactose 5 mg/kg) was “decreased gelatinolytic activity” and the “Focal adhesions immunostained with anti-FAK” value [11] was “markedly inhibited”.
